# Laboratory results taken from patent US10870876B2, “Method for detecting a presence or absence of at least one first zone of inhibition” (BIOMÉRIEUX, priority 2015, dated 2020).
# Test system: Escherichia coli ATCC 35218
# Assay: Etest strip MIC, deposition of the sample in droplets along the strip
# Type: cell-based
substance,measurement,setting,value
gentamicin,MIC,"Table 2, droplet, ATCC 35218, 0.01 McF, 4 H",1.3 µg/mL
same,MIC,"Table 2, droplet, ATCC 35218, 0.01 McF, 5 H",1.3 µg/mL
same,MIC,"Table 2, droplet, ATCC 35218, 0.1 McF, 4 H",2 µg/mL
same,MIC,"Table 2, droplet/replicate 2, ATCC 35218, 0.5 McF, 4 H",2 µg/mL
